From publication PMC9920413, “New Bicyclic Pyridine-Based Hybrids Linked to the 1,2,3-Triazole Unit: Synthesis via Click Reaction and Evaluation of Neurotropic Activity and Molecular Docking” (Molecules, 2023)
“And” between values parts separate entries of the source, which are not always exact repeats. Identical values can stand only once.

Legend:
mice [1] = assay: Forced swimming test; conditions: 50 mg/kg, 6 min; for Total Time of Immobilization: control 42.0 ± 7.24; for Total Time of Active Swimming: control 318.0 ± 8.36;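 for all read-outs here: mice made to swim in a water-filled glass vessel under natural light, with durations of active swimming and immobility recorded across the 6 min session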
Description: Forced swimming test. To assess “despair and depression”, the “compelling swimming” model was used. Experimental animals were forced to swim in a glass container (height 22 cm, diameter 14 cm), filled 1/3 with water. […] The latent period of immobilization, the total duration of active swimming and immobilization are fixed at 6 min (the experiments were conducted under natural light).

rats [2] = assay: Open field test; assay type: in vivo; conditions: 50 mg/kg i.p.; for Cells Examination, amount (absolute data during 5 min): control 2.4 ± 0.67; for Vertical Displacement, amount (absolute data during 5 min): control 7.0 ± 2.14; for Horizontal Displacement, amount (absolute data during 5 min): control 21.6 ± 2.25
Description: Open field test. The research-motor behavior of rats was studied on a modified “open field” model. For this purpose, an installation was used, the bottom of which is divided into squares with holes (cells). Experiments were performed in the daytime with natural light. Within 5 min of the experiment, the indicators of sedative and activating behavior were determined, namely the number of horizontal movements, standing on the hind legs (vertical movements), and sniffing of the cells. The number of animals on this model was eight for each compound, control, and reference drug.

mice [3] = assay: in vivo; conditions: dead animals after 24 h
Description: (§1) Adverse neurotoxic (muscle relaxant) effects of compounds were studied at doses of 50 to 500 mg/kg when administered intraperitoneally, as well as reference drugs in effect at anticonvulsant doses. Myorelaxation was investigated with the test of a “rotating rod” in mice. To this end, mice were planted on a metal rod with a corrugated rubber coating, which rotated at a speed of 5 revolutions per minute. The number of animals that cnot stay on it for 2 min was determined. To determine the ED50, neurotoxic TD50, and LD50, the statistical method of penetration by Litchfield and Wilcoxon was used.

mouse = assay: Elevated plus maze (EPM) test; assay type: in vivo; conditions: 50 mg/kg i.p., 5 min; for Number of Entries into the Closed Arms: control 9.4 ± 1.6; for Time Spent in the Center: control 28.2 ± 3.12; for Time Spent in Closed Arms: control 269.2 ± 10.4
Excerpt: Elevated plus maze—EPM test. Anti-anxiety and sedative effects were studied on mouse a model of the “elevated plus maze”. The labyrinth is a cruciform machine raised above the floor, with a pair of open and closed sleeves opposed to each other. Normal animals prefer to spend most of their time in the closed (dark) sleeves of the labyrinth. The anxiolytic effect of the compounds was estimated by the increase in the number of entries into open (light) sleeves and the time spent in them without increasing the total motor activity. This records the time spent in the closed sleeve and the number of attempts to enter the installation center. In the above model, the test compounds and the reference drug were injected intraperitoneally before the experiments. The control animals were administered as an emulsifier. Results were processed statistically (p < 0.05).

mice [4] = assay: Rotating rod test (neurotoxicity, myorelaxation); assay type: in vivo; conditions: i.p., myorelaxation in 50% of animals
Description: (§2) The study of the anticonvulsant activity of hybrids 7a–u was assessed by evaluating the antagonism to pentylenetetrazole (PTZ), thiosemicarbazide convulsive seizures, and maximal electroshock-induced seizures (MES). The PTZ-induced test is considered an experimental model for the clonic component of epilepsy seizures and the prognostic anxiolytic activity of the compounds. PTZ is a common convulsive agent used in animal models to investigate the mechanisms of seizures. The model of thiosemicarbazide (TSC) seizures (affecting the exchange of GABA) causes clonic seizures similar to pentylenetetrazole ones. The MES test is used as an animal model for the generalization of tonic seizures in epilepsy. The neurotoxicity and side effects of the compounds (movement coordination disorder, myorelaxation, and ataxia) were also studied on mice with the “rotating rod”[29] test.
as §1

rats [5] = assay: Electroshock retrograde amnesia, conditioned response of passive avoidance (CRPA); assay type: in vivo; conditions: 50 mg/kg, study for 5 min; for The Time Spent in the Light Chamber during the Training of the CRPA, First Day: control 280.0 ± 7.5; for The Time Spent in the Light Chamber When Playing CRPA + MESH after 24 h, Second Day: control 281.0 ± 6.1
Description: Test for learning and memory. The antiamnesic properties of the compounds were studied using an electroshock amnesia model modified by J. Bures, O. Buresova. In rats, a conditioned passive avoidance reaction (CRPA) to a dark-light setting was developed, while the training of the animals with CRPA was recorded. The residence times in the light and dark compartments were recorded for 5 min (300 s). Then, in the dark compartment, the animal received a single current shock (0.4 mA) through the electrode floor (training). To obtain amnesia, a maximum electroconvulsive seizure is induced in animals (conducting a maximum electric current of 50 Hz for 0.2 s through corneal electrodes). Conducting an electric shock immediately after training causes the erasure of the memory trace. The test for reproduction is carried out 24 h after training—after the development of CRPA. During this period, the control animals forget the training and prefer to be in the dark part of the chamber. An increase in the time spent by rats in the light compartment compared to the control on the second day indicates the presence of antiamnestic properties of the compounds.

[6] = tested on: thiosemicarbazide (TSC)-induced convulsions; assay: Thiosemicarbazide (TSC) seizures; assay type: in vivo, mice; conditions: mice; for Latency of Convulsions, Induced by TSC, M ± M: compound 100 mg/kg i.p. 45 min before TSC 18 mg/kg s.c.; for Latency of Convulsions, Induced by TSC, I (index of latent period of TSC seizures): compound 100 mg/kg i.p., relative to control = 1.0
Description: as §2
Thiosemicarbazide, an antimetabolite of GABA inhibitor (glutamic acid decarboxylase) in the brain, is administered subcutaneously to mice at a dose of 18 mg/kg as a 0.5% solution, which causes clonic convulsions in animals. Anti-thiosemicarbazide activity was evaluated based on the latency time of the onset of seizures. Compounds were administered intraperitoneally at doses of 100 mg/kg in suspension with carboxymethylcellulose and Tween-80 45 min before administration of thiosemicarbazide.

[7] = tested on: pentylenetetrazole (PTZ)-induced convulsions; assay: Antagonism to pentylenetetrazole (PTZ) convulsions; assay type: in vivo; conditions: for TI: therapeutic index TI = LD50/ED50; for ED50 (by PTZ antagonism): mice, i.p. 45 min before PTZ 90 mg/kg s.c., confidence limits in brackets, p = 0.05
Description: as §2
The anticonvulsant effect of the newly synthesized compounds was investigated by tests comprising pentylenetetrazole, thiosemicarbazide convulsions, and maximal electroshock (MES). Outbred mice (weight 18–22 g) were used for the study. […] Each animal is placed into an individual plastic cage for observation lasting 1 h. Seizures and clonic convulsions were recorded. […] The control animals were administered as an emulsifier. Every dose of each test compound was studied in six animals.
as §1

Compound | melting point [°C] | Total Time of Immobilization (mice [1]) [s] | Total Time of Active Swimming (mice [1]) [s] | Cells Examination, amount (absolute data during 5 min) (rats [2]) | Vertical Displacement, amount (absolute data during 5 min) (rats [2]) | Horizontal Displacement, amount (absolute data during 5 min) (rats [2]) | LD50 (mice [3]) | Time Spent in the Open Arms (mouse; control 2.6 ± 1.6) [s] | Number of Entries into the Closed Arms (mouse) | Time Spent in the Center (mouse) [s] | Time Spent in Closed Arms (mouse) [s] | TD50 (mice [4]) [mg/kg] | The Time Spent in the Light Chamber during the Training of the CRPA, First Day (rats [5]) [s] | The Time Spent in the Light Chamber When Playing CRPA + MESH after 24 h, Second Day (rats [5]) [s] | Latency of Convulsions, Induced by TSC, M ± M [6] [min] | Latency of Convulsions, Induced by TSC, I (index of latent period of TSC seizures) [6] | TI [7] | Time Spent in the Open Arms (mouse; control 2.6 ± 1.6, 50 mg/kg) | ED50 (by PTZ antagonism) [7]
CCCc1nc(OCc2cn(CC(=O)N3CCN(c4nc(C)c5c(c4C#N)CC(C)(C)OC5)CC3)nn2)c(C#N)c2c1COC(C)(C)C2 [7s, 6-{4-[(4-{[(5-Cyano-3,3-dimethyl-8-propyl-3,4-dihydro-1H-pyrano [3,4-c]pyridin-6-yl)oxy]methyl}-1H-1,2,3-triazol-1-yl)acetyl]piperazin-1-yl}-3,3,8-trimethyl-3,4-dihydro-1H-pyrano [3,4-c]pyridine-5-carbonitrile] | 192 to 194 |  |  |  |  |  |  |  |  |  |  |  |  |  |  |  |  |  | 
6-{4-[(4-{[(4-Cyano-1-isopropyl-5,6,7,8-tetrahydroisoquinolin-3-yl)oxy]methyl}-1H-1,2,3-triazol-1-yl)acetyl]piperazin-1-yl}-3,3-dimethyl-1-propyl-3,4-dihydro-1H-pyrano [3,4-c]pyridine-5-carbonitrile [7i] |  | 62.0 ± 5.04 | 300.0 ± 19.35 | 3.4 ± 1.89 | 15.0 ± 4.28 | 50.2 ± 5.5 | 695 (579 ÷ 834) mg/kg | 42.0 ± 8.43 | 2.2 ± 0.61 | 16.0 ± 5.2 | 242.0 ± 16.46 | >500 | 286.0 ± 6.3 | 299.0 ± 6.3 | 41.0 ± 1.75 | 4.1 | 20.4 |  | 
6-{4-[(4-{[(4-Cyano-1-isopropyl-5,6,7,8-tetrahydroisoquinolin-3-yl)oxy]methyl}-1H-1,2,3-triazol-1-yl)acetyl]piperazin-1-yl}-1,3,3-trimethyl-3,4-dihydro-1H-pyrano [3,4-c]pyridine-5-carbonitrile [7g] |  | 3.0 ± 0.6 | 357.0 ± 13.5 | 10.0 ± 3.56 | 9.0 ± 2.34 | 49.0 ± 7.16 | 680 (571 ÷ 809) mg/kg |  | 6.0 ± 1.67 | 53.4 ± 3.53 | 237.8 ± 12.5 | >500 | 283.0 ± 5.2 | 297.0 ± 7.2 | 28.4 ± 0.67 | 2.84 | 37.8 | 6.6 s and 6.6 ± 2.3 s | 18 (10.6 ÷ 30.6) mg/kg
CCCc1nc(N2CCN(C(=O)Cn3cc(COc4nc(-c5ccco5)c5c(c4C#N)CCCC5)nn3)CC2)c(C#N)c2c1COC(C)(C)C2 [7l, 6-(4-{[4-({[4-Cyano-1-(2-furyl)-5,6,7,8-tetrahydroisoquinolin-3-yl]oxy}methyl)-1H-1,2,3-triazol-1-yl]acetyl}piperazin-1-yl)-3,3-dimethyl-8-propyl-3,4-dihydro-1H-pyrano [3,4-c]pyridine-5-carbonitrile] | 144 to 146 |  |  |  |  |  |  |  |  |  |  |  |  |  |  |  |  |  | 
6-{4-[(4-{[(5-Cyano-3,3,8-trimethyl-3,4-dihydro-1H-pyrano [3,4-c]pyridin-6-yl)oxy]methyl}-1H-1,2,3-triazol-1-yl)acetyl]piperazin-1-yl}-1-ethyl-3,3-dimethyl-3,4-dihydro-1H-pyrano [3,4-c]pyridine-5-carbonitrile [7n] |  | 42.0 ± 12.04 | 324.0 ± 22.4 | 3.0 ± 0.89 | 11.6 ± 2.5 | 52.2 ± 12.2 | 820 (689 ÷ 976) mg/kg | 12.0 ± 1.4 | 1.4 ± 1.2 | 82.0 ± 15.2 | 204.0 ± 14.2 | >500 | 283.0 ± 7.1 | 297.0 ± 6.8 | 41.2 ± 1.61 | 4.12 | 31.5 |  | 26 (18.6 ÷ 36.4) mg/kg
6-{4-[(4-{[(4-Cyano-1-methyl-5,6,7,8-tetrahydroisoquinolin-3-yl)oxy]methyl}-1H-1,2,3-triazol-1-yl)acetyl]piperazin-1-yl}-1,3,3-trimethyl-3,4-dihydro-1H-pyrano [3,4-c]pyridine-5-carbonitrile [7d] |  | 77.4 ± 7.1 | 300.0 ± 29.2 | 6.2 ±0.38 | 14.4 ± 3.98 | 38.6 ± 5.18 | 800 (672 ÷ 952) mg/kg | 21.0 ± 3.2 | 1.36 ± 0.8 | 15.0 ± 3.62 | 264 ± 8.12 | >500 | 284.0 ± 6.8 | 299.0 ± 7.2 | 41.2 ± 1.61 | 4.12 |  |  | 16 (13.1 ÷ 19.5) mg/kg
